# Data: US7381521B2, “Anti-pathogenic composition useful in blood preservation” (Altachem Pharma Ltd., priority 2001, dated 2008)
# System: erythrocytes in heparinized bovine blood
# Assay: In-vitro hemolysis of erythrocytes in heparinized whole blood, absorbance at 413 nm
# Settings: 1 hour at 37° C.
# Protocol: The effect of the compounds on the in-vitro hemolysis of erythrocytes in heparinized whole blood is monitored by a spectrophotometric method.
# Various formulations and concentrations of the test compound are added to heparinized bovine blood and mixed gently in a 1.5 ml microcentrifuge tube. The sample is allowed to incubate for 1 hour at 37° C. At the end of incubation, the samples are removed from the incubator and centrifuged at 2000 rpm for 5 minutes. A 200 μl aliquot of the supernatant is removed from each sample into a 96 well microtiter plate and read at 413 nm. The absorbance of the test sample is compared to the control sample containing phosphate buffered saline, pH 7.2.
row,Compound,Concentration at which hemolysis is not observed
1,C[N+](C)(C)CCCCCC[N+](C)(C)C [Hexamethonium Bromide],0.0125%
2,Tergitol NP-9,0.001%
3,C[N+](C)(C)CCCCCCCCCC[N+](C)(C)C.[I-].[I-] [Decamethonium Iodide],0.0125%
